ChEMBL document CHEMBL1201862, “PubChem BioAssay data set” (2004)
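All cell lines were grown in 96-well plates and treated with compound for 48 hours. GI50: concentration for 50% inhibition of growth.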 The source made the active and inactive calls. Rule as the data show it: active = GI50 up to about 1.1 µM and inactive = higher.

Experiments:
Assay in all cases: inhibition of tumour cell growth, NCI panel, 48 h
SF-295 = tested on: SF-295
OVCAR-4 = tested on: OVCAR-4
SN12C = tested on: SN12C
HOP-62 = tested on: HOP-62
SK-OV-3 = tested on: SK-OV-3
NCI-H23 = tested on: NCI-H23
UACC-62 = tested on: UACC-62
UACC-257 = tested on: UACC-257
U-251 = tested on: U-251
SK-MEL-2 = tested on: SK-MEL-2
SF-268 = tested on: SF-268
A549 = tested on: A549
IGROV-1 = tested on: IGROV-1
RPMI-8226 = tested on: RPMI-8226
KM12 = tested on: KM12
UO-31 = tested on: UO-31
OVCAR-8 = tested on: OVCAR-8
COLO 205 = tested on: COLO 205
NCI-H460 = tested on: NCI-H460
OVCAR-3 = tested on: OVCAR-3

Compound	GI50 (SF-295)	GI50 (OVCAR-4)	GI50 (SN12C)	GI50 (HOP-62)	GI50 (SK-OV-3)	GI50 (NCI-H23)	GI50 (UACC-62)	GI50 (UACC-257)	GI50 (U-251)	GI50 (SK-MEL-2)	GI50 (SF-268)	GI50 (A549)	GI50 (IGROV-1)	GI50 (RPMI-8226)	GI50 (KM12)	GI50 (UO-31)	GI50 (OVCAR-8)	GI50 (COLO 205)	GI50 (NCI-H460)	GI50 (OVCAR-3)
Nn1c(S)nnc1COc1cccc(OCc2nnc(S)n2N)c1	> 100 µM (inactive)	> 100 µM (inactive)	> 100 µM (inactive)	> 100 µM (inactive)	> 100 µM (inactive)	> 100 µM (inactive)	83.2 µM (inactive)	> 100 µM (inactive)	> 100 µM (inactive)	> 100 µM (inactive)	> 100 µM (inactive)	> 100 µM (inactive)	> 100 µM (inactive)	53.6 µM (inactive)	> 100 µM (inactive)	> 100 µM (inactive)	> 100 µM (inactive)	98.4 µM (inactive)	29.7 µM (inactive)	> 100 µM (inactive)
Oc1cccc(-c2nc3ccccc3s2)c1	26.7 µM (inactive)	19.1 µM (inactive)	33.8 µM (inactive)	22.5 µM (inactive)	27.9 µM (inactive)	15.8 µM (inactive)	34.8 µM (inactive)	26.4 µM (inactive)	39.5 µM (inactive)	28.4 µM (inactive)	19.8 µM (inactive)	26.2 µM (inactive)	5.02 µM (inactive)	39.4 µM (inactive)	14.7 µM (inactive)	26.1 µM (inactive)	27.2 µM (inactive)	35.9 µM (inactive)	34 µM (inactive)	21.6 µM (inactive)
FC(F)(F)c1ccc(/N=N/N2CCCC2)cc1	> 100 µM (inactive)	> 100 µM (inactive)	> 100 µM (inactive)	> 100 µM (inactive)	> 100 µM (inactive)	65.8 µM (inactive)	> 100 µM (inactive)	> 100 µM (inactive)	> 100 µM (inactive)	> 100 µM (inactive)	> 100 µM (inactive)	> 100 µM (inactive)	> 100 µM (inactive)	> 100 µM (inactive)	5.31 µM (inactive)	54.7 µM (inactive)	–	> 100 µM (inactive)	63 µM (inactive)	> 100 µM (inactive)
Cc1ccccc1NC(=O)CSc1nnc(Cc2ccccc2)o1	> 100 µM (inactive)	> 100 µM (inactive)	> 100 µM (inactive)	> 100 µM (inactive)	> 100 µM (inactive)	> 100 µM (inactive)	> 100 µM (inactive)	> 100 µM (inactive)	> 100 µM (inactive)	> 100 µM (inactive)	> 100 µM (inactive)	> 100 µM (inactive)	> 100 µM (inactive)	> 100 µM (inactive)	> 100 µM (inactive)	> 100 µM (inactive)	> 100 µM (inactive)	> 100 µM (inactive)	> 100 µM (inactive)	> 100 µM (inactive)
Cc1c2c(cc3c1[nH]c1ccccc13)C(c1ccc(Cl)cc1)=NCC2	0.255 µM (active)	0.718 µM (active)	0.244 µM (active)	0.738 µM (active)	2.67 µM (inactive)	0.368 µM (active)	0.452 µM (active)	0.621 µM (active)	0.608 µM (active)	0.711 µM (active)	0.598 µM (active)	0.665 µM (active)	0.944 µM (active)	0.497 µM (active)	0.274 µM (active)	0.644 µM (active)	0.804 µM (active)	0.41 µM (active)	0.267 µM (active)	0.29 µM (active)
CC(C)CNc1nc2ncnc(N)c2[nH]1	> 100 µM (inactive)	> 100 µM (inactive)	> 100 µM (inactive)	> 100 µM (inactive)	> 100 µM (inactive)	> 100 µM (inactive)	> 100 µM (inactive)	> 100 µM (inactive)	> 100 µM (inactive)	> 100 µM (inactive)	> 100 µM (inactive)	> 100 µM (inactive)	> 100 µM (inactive)	> 100 µM (inactive)	> 100 µM (inactive)	> 100 µM (inactive)	> 100 µM (inactive)	> 100 µM (inactive)	> 100 µM (inactive)	> 100 µM (inactive)
